The supplement of paper PMC11061612

What was measured:
[1] = test system: OCI-AML5 (Acute Myeloid Leukemia); assay: Bliss excess, mean over the matrix (fraction); higher = more synergy
How it was run: (§1)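 Cell lines grown in DMEM/F12 or RPMI with 10% FBS were plated in 1536-well plates and held 24 hours at 37°C, 5% CO2 before 72 hours of exposure to two-drug dose matrices, with DMSO typically at 0.2%. CellTiter-Glo 2.0 luminescence gave viability, which was converted to inhibition. Vehicle wells were set to 0 and blank wells to 1. Combination Emax is the second-highest inhibition in the matrix, and Bliss excess is the observed combination effect minus the expected EA + EB − EA·EB, where EA and EB are the single-agent effects.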

[2] = test system: EB-3 (Burkitt's Lymphoma); assay: as above
How it was run: as §1

[3] = test system: SW684 (Other Solid Carcinomas); assay: combination Emax (second highest fraction inhibited in the dose matrix, 72 h); higher = more inhibition; extreme values may be limits of the assay
How it was run: as §1

[4] = test system: KYSE-70 (Esophageal Squamous Cell Carcinoma); assay: as above
How it was run: as §1

[5] = test system: RPMI-8866 (Chronic Myelogenous Leukemia); assay: as above
How it was run: as §1

[6] = test system: LAMA-84 (Chronic Myelogenous Leukemia); assay: as above
How it was run: as §1

HuO-3N1 (Osteosarcoma) = assay: as above
How it was run: as §1

[7] = test system: OVTOKO (Ovarian Carcinoma); assay: as above
How it was run: as §1

[8] = test system: NCI-H1155 (Non-Small Cell Lung Carcinoma); assay: as above
How it was run: as §1

[9] = test system: AsPC-1 (Pancreatic Carcinoma); assay: as above
How it was run: as §1

RT4 (Bladder Carcinoma) = assay: as above
How it was run: as §1

[10] = test system: RL95-2 (Endometrial Carcinoma); assay: as above
How it was run: as §1

[11] = test system: SJRH30 (Rhabdomyosarcoma); assay: as above
How it was run: as §1

[12] = test system: Becker (Low Grade Glioma); assay: as above
How it was run: as §1

[13] = test system: Caov-3 (Ovarian Carcinoma); assay: as above
How it was run: as §1

[14] = test system: PANC-02-03 (Pancreatic Carcinoma); assay: as above
How it was run: as §1

[15] = test system: OV-90 (Ovarian Carcinoma); assay: as above
How it was run: as §1

[16] = test system: PC-14 (Lung Adenocarcinoma); assay: as above
How it was run: as §1

[17] = test system: CML-T1 (Chronic Myelogenous Leukemia); assay: as above
How it was run: as §1

[18] = test system: RMG-I (Ovarian Carcinoma); assay: as above
How it was run: as §1
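Throughout, for Bliss excess, mean over the matrix: after 72 h of two-drug dosing.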

SMILES | Bliss excess [1] | Bliss excess [2] | combination Emax [3] | combination Emax [4] | combination Emax [5] | combination Emax [6] | combination Emax (HuO-3N1 (Osteosarcoma)) | combination Emax [7] | combination Emax [8] | combination Emax [9] | combination Emax (RT4 (Bladder Carcinoma)) | combination Emax [10] | combination Emax [11] | combination Emax [12] | combination Emax [13] | combination Emax [14] | combination Emax [15] | combination Emax [16] | combination Emax [17] | combination Emax [18]
Cc1c2c(nn1C)CSCc1cc(n(C)n1)CSc1cc(c3ccccc3c1)OCCCc1c(C(=O)O)n(C)c3c-2c(Cl)ccc13 [AZD5991] + C1CN(CCC1(C(=O)N[C@@H](CCO)C2=CC=C(C=C2)Cl)N)C3=NC=NC4=C3C=CN4 [Capivasertib] (first compound max 1 µM, 7x7, partner max 3 µM) | -0.0204 | -0.0013 | 0.402 | 0.246 | 0.52 | 0.189 | 0.881 | 0.367 | 0.525 | 0.161 | 0.22 | 1 | 0.669 | 0.308 | 0.307 | 0.179 | 0.241 | 0.26 | 0.0638 | 0.236
CN(CCO)CC[C@H](CSc1ccccc1)Nc1ccc(S(=O)(=O)NC(=O)c2ccc(N3CCC([C@@H](O)c4ccccc4-c4ccc(Cl)cc4)CC3)cc2)cc1S(=O)(=O)C(F)(F)F [AZD4320] + Cn1cnc2c(F)c(Nc3ccc(Br)cc3Cl)c(C(=O)NOCCO)cc21 [Selumetinib] (first compound max 1 µM, 7x7, partner max 3 µM) | 0.0137 | -0.036 | 0.609 | 0.229 | 0.854 | 0.99 | 0.221 | 0.318 | 0.95 | 0.759 | 0.601 | 0.667 | 0.487 | 0.259 | 0.803 | 0.55 | 0.981 | 0.333 | 0.996 | 0.912
CN(C)CCCOc1ccc(-c2ccc3ncc4c(c3c2)n(C2CCOCC2)c(=O)n4C)cn1 [AZD0156] + CCN(CCO)CCCOc1ccc2c(Nc3cc(CC(=O)Nc4cccc(F)c4)[nH]n3)ncnc2c1 [AZD2811] (first compound max 1 µM, 7x7, partner max 1 µM) | -0.0185 | 0.0304 | 0.154 | 0.161 | 0.61 | 0.296 | 0.15 | 0.113 | 0.377 | 0.0981 | 0.349 | 0.557 | 0.125 | 0.0601 | 0.809 | 0.163 | 0.143 | 0.202 | 0.259 | 0.093
COc1cccc(OCCCN)c1-c1cc(Nc2cnc(C#N)cn2)n[nH]1 [Prexasertib] + C[C@@H]1COCCN1C2=NC(=NC(=C2)C3(CC3)[S@](=N)(=O)C)C4=C5C=CNC5=NC=C4 [AZD6738] (first compound max 1 µM, 7x7, partner max 10 µM) | -0.0205 | -0.0598 | 0.451 | 0.602 | 1 | 0.99 | 0.432 | 0.516 | 0.93 | 0.416 | 0.555 | 0.898 | 0.943 | 0.733 | 0.785 | 0.639 | 0.548 | 0.879 | 0.97 | 0.629
Cc1c2c(nn1C)CSCc1cc(n(C)n1)CSc1cc(c3ccccc3c1)OCCCc1c(C(=O)O)n(C)c3c-2c(Cl)ccc13 [AZD5991] + Cc1cc2ncnn2cc1Nc1ncc2c(n1)n(C1CCOCC1)c(=O)n2C [AZD7648] (first compound max 1 µM, 7x7, partner max 10 µM) | 0.0059 | -0.0379 | 0.298 | 0.159 | 0.533 | 0.22 | 0.85 | 0.41 | 0.257 | 0.246 | 0.358 | 0.999 | 0.478 | 0.177 | 0.388 | 0.183 | 0.257 | 0.27 | 0.332 | 0.344
CN(C)CCCOc1ccc(-c2ccc3ncc4c(c3c2)n(C2CCOCC2)c(=O)n4C)cn1 [AZD0156] + C[C@@H]1COCCN1C2=NC(=NC(=C2)C3(CC3)[S@](=N)(=O)C)C4=C5C=CNC5=NC=C4 [AZD6738] (first compound max 1 µM, 7x7, partner max 10 µM) | -0.0479 | -0.0035 | 0.301 | 0.397 | 0.967 | 0.97 | 0.299 | 0.471 | 0.748 | 0.454 | 0.411 | 0.551 | 0.894 | 0.579 | 0.663 | 0.579 | 0.437 | 0.828 | 0.927 | 0.528
CCN(CCO)CCCOc1ccc2c(Nc3cc(CC(=O)Nc4cccc(F)c4)[nH]n3)ncnc2c1 [AZD2811] + C[C@@H]1COCCN1C2=NC(=NC(=C2)C3(CC3)[S@](=N)(=O)C)C4=C5C=CNC5=NC=C4 [AZD6738] (first compound max 1 µM, 7x7, partner max 10 µM) | -0.0299 | -0.0835 | 0.385 | 0.313 | 0.955 | 0.97 | 0.339 | 0.37 | 0.787 | 0.42 | 0.429 | 0.773 | 0.839 | 0.586 | 0.841 | 0.62 | 0.429 | 0.83 | 0.934 | 0.497
Cc1c2c(nn1C)CSCc1cc(n(C)n1)CSc1cc(c3ccccc3c1)OCCCc1c(C(=O)O)n(C)c3c-2c(Cl)ccc13 [AZD5991] + CN(C)CCCOc1ccc(-c2ccc3ncc4c(c3c2)n(C2CCOCC2)c(=O)n4C)cn1 [AZD0156] (first compound max 1 µM, 7x7, partner max 1 µM) | 0.0075 | -0.0005 | 0.236 | 0.156 | 0.668 | 0.177 | 0.844 | 0.319 | 0.626 | 0.24 | 0.289 | 0.977 | 0.544 | 0.141 | 0.39 | 0.203 | 0.209 | 0.236 | 0.223 | 0.293
CN(CCO)CC[C@H](CSc1ccccc1)Nc1ccc(S(=O)(=O)NC(=O)c2ccc(N3CCC([C@@H](O)c4ccccc4-c4ccc(Cl)cc4)CC3)cc2)cc1S(=O)(=O)C(F)(F)F [AZD4320] + C1CN(CCC1(C(=O)N[C@@H](CCO)C2=CC=C(C=C2)Cl)N)C3=NC=NC4=C3C=CN4 [Capivasertib] (first compound max 1 µM, 7x7, partner max 3 µM) | 0.0104 | -0.0462 | 0.449 | 0.167 | 0.641 | 0.696 | 0.201 | 0.413 | 0.904 | 0.643 | 0.144 | 0.533 | 0.427 | 0.298 | 0.363 | 0.0923 | 0.717 | 0.255 | 0.977 | 0.708
CC1(C)CCC(CN2CCN(c3ccc(C(=O)NS(=O)(=O)c4ccc(NCC5CCOCC5)c([N+](=O)[O-])c4)c(Oc4cnc5[nH]ccc5c4)c3)CC2)=C(c2ccc(Cl)cc2)C1 [Venetoclax] + C[C@@H](Nc1cc(F)cc(F)c1)c1cc(C(=O)N(C)C)cc2c(=O)cc(N3CCOCC3)oc12 [AZD8186] (first compound max 1 µM, 7x7, partner max 3 µM) | 0.0529 | -0.0366 | 0.315 | 0.0812 | 0.594 | 0.313 | 0.269 | 0.521 | 0.422 | 0.104 | 0.174 | 0.106 | 0.0499 | 0.418 | 0.797 | 0.147 | 0.164 | 0.175 | 0.967 | 0.277
CN(CCO)CC[C@H](CSc1ccccc1)Nc1ccc(S(=O)(=O)NC(=O)c2ccc(N3CCC([C@@H](O)c4ccccc4-c4ccc(Cl)cc4)CC3)cc2)cc1S(=O)(=O)C(F)(F)F [AZD4320] + C=CCn1c(=O)c2cnc(Nc3ccc(N4CCN(C)CC4)cc3)nc2n1-c1cccc(C(C)(C)O)n1 [AZD1775] (first compound max 1 µM, partner max 1 µM) | 0.0099 | -0.0269 | 0.381 | 0.67 | 1 | 1 | 0.349 | 0.621 | 0.908 | 0.728 | 0.629 | 0.53 | 0.93 | 0.261 | 0.979 | 0.585 | 0.933 | 0.99 | 1 | 0.907
C[C@@H]1COCCN1c1cc(C2([S@](C)(=N)=O)CC2)nc(-c2ccnc3[nH]ccc23)n1 [AZD6738] + O=C(c1cc(Cc2n[nH]c(=O)c3ccccc23)ccc1F)N1CCN(C(=O)C2CC2)CC1 [Olaparib] (first compound max 10 µM, 7x7, partner max 10 µM) | -0.0071 | -0.0955 | 0.422 | 0.45 | 0.982 | 0.961 | 0.339 | 0.398 | 0.825 | 0.308 | 0.443 | 0.641 | 0.619 | 0.601 | 0.699 | 0.692 | 0.537 | 0.816 | 0.966 | 0.414
